Reference: paper PMC7466159, “Anti-Metastasis Fascin Inhibitors Decrease the Growth of Specific Subtypes of Cancers” (Cancers, 2020)

Columns and labels:
[1] = tested on: NF-κB nuclear translocation in Ly10 cells; test: p65 (NF-κB) nuclear translocation, Western blotting, Ly10; type: cell-based; conditions: 30 µM, 16 h
[2] = Pharmacokinetic study after single IV and oral gavage dose, plasma by LC-MS/MS; conditions: mice
Protocol: The PK parameters of NP-G2-044 were assessed following a single intravenous (IV) and single oral (PO) gavage dose administration to mice. Blood samples were collected pre-dose, and 3, 10, 30 min, 1, 1.5, 3, 6, 9, 24, 32, or 48 h after dosing. The plasma samples were then extracted and the concentrations of NP-G2-044 were determined by LC-MS/MS.
The concentrations of NP-G2-044 in plasma were determined using high performance liquid chromatography with tandem mass spectrometry (LC-MS/MS). All blood samples were transferred into a commercial tube containing potassium (K2) EDTA (ethylene diaminetetraacetic acid) and were processed for plasma. Samples were centrifuged (3000× g for 10 min at 2 to 8 °C) within one hour of collection. The assays used a Sciex API 4000 detector and nifedipine as an internal standard. The calibration ranges for NP-G2-044 were from 5.00 to 5000 ng/mL. The plasma concentration of NP-G2-044 in mice was subjected to a non-compartmental pharmacokinetic analysis by using the Phoenix WinNonlin software (version 6.3, Pharsight, Mountain View, CA, USA). The nominal dose levels and nominal sampling times were used in the calculation of all pharmacokinetic parameters. The linear/log trapezoidal rule was applied in obtaining the PK parameters.

[3] = tested on: HCC38 triple-negative breast cancer cells; test: Cell growth assay, HCC38; type: cell-based; conditions: HCC38 cells in culture, 10% serum
HT lymphoma cells = test: HT lymphoma model in NSG mice (tumor growth, overall survival); type: in vivo; conditions: 300 mg/kg gavage once a day 5 days every week from day 28, vs control
Protocol: HT cells (5 × 10^6) suspended in PBS-matrigel (v/v, 1: 1) were subcutaneously injected into NSG mice on day 0. Starting on day 28, NP-G2-044 or the control solvent was given once a day for 5 days every week by gavage at 300 mg kg^−1 per mouse until their death.

U2932 cells = test: Soft-agar colony formation assay, U2932; type: cell-based; conditions: 14 days, dosage-dependent
Protocol: (§1) A total of 1 × or 2 ×10^4 cells were suspended in 0.5 mL of 0.3% low melting point agar (Merck KGaA, Darmstadt, Germany) in RPMI-1640 or DMEM containing 10% FBS and control solvent or the inhibitors. This suspension was overlaid on pre-solidified with 0.6% agar in the same medium in 24-well plates as previously described. Normal growth medium containing control solvent or the inhibitors was gently layered over the cultures every 4 days for 14 days. The colonies were stained with 0.1% crystal violet for 1 h at room temperature and counted under a microscope.

HT cells = test: Soft-agar colony formation assay, HT; type: cell-based; conditions: 14 days, dosage-dependent
Protocol: as §1

4T1 breast tumor cells = test: 4T1 metastatic recurrence after chemotherapy and surgical removal of primary tumor; type: in vivo, mice; conditions: 100 mg/kg once daily by gavage starting on Day 3, with paclitaxel and surgery; compared to chemotherapy alone, p < 0.05; Day 32
Protocol: Female BALB/c mice (6- to 8-week old) were purchased from Charles River Labs. The 4T1 tumor cells (1 × 10^5) were injected subcutaneously into the abdominal mammary gland area of mice using 0.1 mL of a single-cell suspension in PBS-matrigel (v/v, 1:1) on Day 0 as previously described. […] On Day 28, the mice were sacrificed. […] The numbers of metastatic 4T1 cells in lungs were determined by a clonogenic assay. In brief, the lungs were removed from each mouse, finely minced and digested in 5 mL of an enzyme cocktail containing 1 × PBS and 1 mg/mL collagenase type IV for 2 h at 37 ℃ on a platform rocker. After incubation, samples were filtered through 70-µm nylon cell strainers and washed twice with PBS. The resulting cells were suspended and plated with a series of dilutions in 10-cm tissue culture dishes in DMEM medium containing 60 µM thioguanine for clonogenic growth. As 4T1 tumor cells are resistant to 6-thioguanine, the metastasized tumor cells formed foci after 14 days, at which time they were fixed with 4% paraformaldehyde and stained with crystal violet staining solution for counting. For the experiments in Figure 2F,G, 4T1 tumor cells (1 × 10^5) suspended in PBS-matrigel (v/v, 1:1) were injected subcutaneously into the abdominal mammary gland area of mice on day 0. Starting on Day 3, NP-G2-044 was given to mice once every day by oral gavage at 100 mg kg^−1 per mouse. […]

[4] = tested on: 4T1 triple-negative breast cancer cells; parameters: method as in PMID 26081695, PMID 27071719; conditions: 4T1 cells; cited from earlier work
[5] = tested on: MDA-MB-468 triple-negative breast cancer cells; test: Cell growth assay, MDA-MB-468; type: cell-based; conditions: MDA-MB-468 cells in culture, 10% serum
[6] = tested on: phosphorylation of ERK, PLCγ1, and PI3K in HCC38 cells; test: EGFR signaling pathway Western blotting, HCC38; type: cell-based; conditions: 10 ng/mL EGF, 30 µM, 24 h
Protocol: MDA-MB-468 cells and HCC38 cells grew in the presence of EGF with or without NP-G2-044. […] Finally, we used the animal model to investigate whether the primary tumor growth of MDA-MB-468 cells was sensitive to fascin inhibitors. MDA-MB-468 tumor cells were implanted into the mammary gland of NSG mice, and these mice were randomly divided into four groups. One group of mice was used as control (Figure 6I). The second group of mice was treated with the fascin inhibitor NP-G2-044 (Figure 6I). The third group was treated with the EGFR inhibitor gefitnib (Figure 6I), and the fourth group was treated with the combination of NP-G2-044 + gefitinib (Figure 6I). […] We dissected the primary tumor tissues 55 days after the tumor implantation from some mice. […] Furthermore, the overall survival of the mice was analyzed (Figure 6K).
For the cell signal pathway analysis of breast cancer cells, HCC38 and MDA-MB-468 cells were plated in a 10-cm dish. After culture for 24 h, cells were incubated in serum-free medium for 16 h.

[7] = tested on: KARPAS 299 lymphoma cells; test: Cell growth sensitivity, KARPAS 299; type: cell-based
[8] = tested on: MDA-MB-231 triple-negative breast cancer cells; parameters: method as in PMID 26081695, PMID 27071719; conditions: MDA-MB-231 cells; cited from earlier work
U2932 lymphoma cells = test: U2932 lymphoma model in NSG mice (tumor growth, liver metastasis, overall survival); type: in vivo
Protocol: For the lymphoma model, U2932 cells (5 × 10^6) suspended in PBS-matrigel (v/v, 1:1) were subcutaneously injected into NSG mice on Say 0. Starting on Day 49, NP-G2-044 was given once a day for 5 days every week by gavage at 300 mg kg^−1 per mouse until their death. Starting on Day 49, LY2409881 was given once weekly by intraperitoneal injection at 50 mg kg^−1 per mouse for 8 times. The control solvent was given according to their body weights until their death. […] The primary tumors and livers shown in the figure were dissected on Day 67.

[9] = tested on: NCI-H660 human neuroendocrine prostate cancer cells
Protocol: To investigate the effect of NP-G2-044 on the overall survival of mice bearing NCI-H660 tumors, NCI-H660 tumor cells were injected into the prostate of male NSG mice. NCI-H660 tumor-bearing mice were randomized into two groups. In the control group, the vehicle solvent was given (marked as the “control” group) (Figure 3F). In the second group, the mice were treated with NP-G2-044 (5 days per week by an oral gavage). NP-G2-044 treatment started on Day 7.
Human neuroendocrine prostate cancer NCI-H660 cells (1 × 10^5) suspended in PBS were injected into the prostate of male NSG mice (6- to 8-week old from the Jackson Lab) on day 0 as previously described [56]. Briefly, the abdomen was cleaned with iodine solution, and a 1-cm midline incision was created to expose the prostate gland. A 29-gauge needle and a 1-mL disposable syringe were used for the injection of the cell suspension. The needle was inserted into the middle portion of the right anterior lobe, and then was directed towards the cranial portion of the lobe. The abdominal wound was closed in 2 layers with surgical sutures. Starting on Day 7, NP-G2-044 or the control solvent was given once a day for 5 days a week by oral gavage. […] The death of the mice was used as the endpoint.

[10] = tested on: NF-κB nuclear translocation in HT cells; test: p65 (NF-κB) nuclear translocation, Western blotting, HT; type: cell-based; conditions: 30 µM, 16 h
Ly10 cells = test: Cell growth assay, Ly10; conditions: Ly10 cells in culture, 4 days
Protocol: We then extended our search to other types of lymphoma cells. […] Both U2932 and Ly10 cells are ABC-subtype DLBCLs, and HT cells are diffuse mixed lymphoma.
For NP-G2-044 dose-dependent studies, 1 × 10^5 Ly10, U2932, or HT cells were seeded in a 12- or 24-well plate on day 0. A total of 1, 3, 10, 30, or 100 μM NP-G2-044 or control solvent was added to the plates. Cells were collected and counted on day 4. For time-dependent studies, 1 × 10^5 Ly10, U2932, or HT cells were seeded in a 12- or 24-well plate on day 0. A total of 30 μM NP-G2-044, 5 μM LY2409881, 30 μM NP-G2-044 plus 5 μM LY2409881, or control solvent was added to the plates. Cells were collected and counted on Days 2 and 4. […] The cell growth index was expressed as the fold changes of cell numbers over the starting cell number. For these assays, the old medium was changed with a fresh medium containing the control solvent or the inhibitors every two days.

[11] = treatment from Day 49, vs control group

## Cc1occc1C(=O)Nc1nn(Cc2ccc(C(F)(F)F)cc2)c2ccccc12 [NP-G2-044]
[1]
  nuclear translocation of the p65 subunits: also observed
[2]; IV, 20 mg/kg
  Vd: 9.32 ± 1.35 L/kg
[2]; oral 20 to 100 mg/kg
  oral bioavailability (based on AUC0–t): 34–39%
[3]
  growth sensitivity: sensitive
HT lymphoma cells
  primary tumor growth: decreased
HT lymphoma cells; logrank p = 0.002
  overall survival: increased
U2932 cells
  number of growing colonies: decreased the number of growing colonies
HT cells
  number of growing colonies: decreased the number of growing colonies
4T1 breast tumor cells
  metastatic recurrence of breast tumors in the lung: slowed the metastatic recurrence
[4]
  induction of apoptosis: did not induce the apoptosis
[5]
  growth sensitivity: sensitive
[6]
  phosphorylation of ERK, PLCγ1, and PI3K: affected
[7]
  growth sensitivity: insensitive
[8]
  induction of apoptosis: did not induce the apoptosis
U2932 lymphoma cells; livers dissected on Day 67
  metastasis of implanted lymphoma cells to the liver: blocked the metastasis to the liver
U2932 lymphoma cells; [11]
  increase of median overall survival: 79%
  overall survival: increased
  primary tumor growth: decreased
[9]; male NSG mice, oral gavage 5 days per week from Day 7, compared with control group, log-rank p < 0.001
  increase of median overall survival: 50%
[9]; mouse, in vivo, po
  tolerability of dosage regimen: well tolerated with no signs of overt toxicity
[10]
  nuclear translocation of the p65 subunits: also observed
Ly10 cells
  effect on cell growth: inhibitory effect
